Data as given in patent publication US12310962B2, “Methods and compositions for treating cancer” (Zetagen Therapeutics, Inc., priority 2019, dated 2025).
“Also recorded” adds a separate entry of the source.

Key:
[1] = tested on: breast cancer cells (BT474); assay: LDH release cytotoxicity assay; assay type: cell-based; conditions: naloxone added for 3 hours, LDH release at 24 hours post-treatment, corrected for cell number, p<0.001
[2] = tested on: non-tumor cells, breast epithelium (HUMEC) or vascular endothelium (HUVEC); assay: Cell number of non-tumor control cells versus naloxone dose; assay type: cell-based; conditions: 72 h
[3] = tested on: SaOS2 cells; assay: Cell number after 72 hours of naloxone treatment; conditions: highest dose
[4] = tested on: BT474 TNBC cells; assay: Tumor spheroid assay; assay type: cell-based; conditions: 1-5 mM, dose dependent
Description: (§1) FIGS. 3A-3C depict a spheroid assay showing that naloxone (an OGFR antagonist) treatment decreases tumor size in vitro. […] FIG. 3B depicts a graph showing quantification of the size of the spheroids formed in the spheroid assay described in FIG. 3A as percent change in spheroid area fraction between time 0 and 120 hours after treatment. FIG. 3C depicts a graph showing quantification of the size of the spheroids formed in the spheroid assay described in FIG. 3A as percent change in cell area fraction in each spheroid at 120 hours after treatment.
(§2) Malignant tumors are characterized by invasion of surrounding normal tissues, and the spheroid assay is a simple micro-plate method (based on uniform, self-assembling 3D tumor spheroids) that is routinely used to assess tumor growth. The effects of anti-tumor efficacy were determined by quantifying the size of the spheroids formed in the and calculate percent change in spheroid area fraction between time 0 and 120 hours after treatment as shown in FIG. 3B. The anti-tumor efficacy was also determined by quantifying the percent change in cell area fraction in each spheroid at 120 hours after treatment as determined by staining the cells with crystal violet as shown in FIG. 3C.

[5] = tested on: SaOS2 osteosarcoma cells; assay: Tumor spheroid assay; assay type: cell-based; conditions: 1-5 mM, dose dependent
Description: as §1, §2

[6] = tested on: BT20; assay: Cell number after 72 hours of naloxone treatment; conditions: highest dose
[7] = Cell number after 72 hours of naloxone treatment; assay type: cell-based; conditions: cells printed as "90"; highest dose; after 72 hours
[8] = tested on: triple negative breast cancer (TNBC) cells BT474; assay: Cell number after 72 hours of naloxone treatment; assay type: cell-based; conditions: BT474; 72 h exposure; dose dependent
[9] = tested on: breast cancer cells (BT20); assay: LDH release cytotoxicity assay; assay type: cell-based; conditions: naloxone added for 3 hours, LDH release at 24 hours post-treatment, corrected for cell number, p<0.001
[10] = tested on: osteosarcoma cells (SaOS2); assay: LDH release cytotoxicity assay; assay type: cell-based; conditions: naloxone added for 3 hours, LDH release at 24 hours post-treatment, corrected for cell number, p<0.001
[11] = between time 0 and 120 hours after treatment

## C=CCN1CC[C@]23c4c5ccc(O)c4O[C@H]2C(=O)CC[C@@]3(O)[C@H]1C5 [Naloxone, naloxone]
[1]
  increase in LDH values relative to normal (non-tumor) cells: 3 fold
[2]
  dose up to which a non-tumor cell sparing effect is provided: ≤ 2.5 mM
[3]
  decrease in cell number: 60%
[4]; 120 hours after treatment
  tumor mass cellularity (percent change in cell area fraction, crystal violet): decreased
[4]; [11]
  size of the tumor masses (percent change in spheroid area fraction): reduced tumor growth; also recorded: decreased the size of the tumor masses
[5]; 120 hours after treatment
  tumor mass cellularity (percent change in cell area fraction, crystal violet): decreased
[5]; [11]
  size of the tumor masses (percent change in spheroid area fraction): decreased the size of the tumor masses
[6]
  decrease in cell number: 90%
[7]
  decrease in cell number: 90%
[8]
  number of metabolically active cells compared to control non-tumor cells (HUMEC, HUVEC): significant reduction
[9]
  increase in LDH values relative to normal (non-tumor) cells: 6 fold
[10]
  increase in LDH values relative to normal (non-tumor) cells: 6 fold
